Assay results as given in ChEMBL document CHEMBL2062504, “Diterpenoid alkaloids from the lateral root of Aconitum carmichaelii” (J Nat Prod, 2012).
Calls of active or inactive are those of the source.

Experiments:
[1] = tested on: Liver microsomes; test: Antioxidant activity in rat liver microsome assessed as inhibition of FeSO4-induced lipid peroxidation at 10 uM incubated for 15 mins prior to FeSO4-challenge measured after 15 mins by modified thiobarbituric acid method; format: functional
[2] = tested on: WB-F344; test: Hepatoprotective activity against DL-galactosamine-induced cell death in rat WB-F344 cells at 10 uM incubated for 1 hr prior to DL-galactosamine-challenge measured after 24 hrs by MTT assay; format: functional, cell-based
[3] = tested on: Peritoneal macrophage cell; test: Antiinflammatory activity in mouse peritoneal macrophages assessed as inhibition of nitric oxide production at 10 uM; format: functional, cell-based
[4] = tested on: BGC-823; test: Cytotoxicity against human BGC823 cells at 10 uM after 96 hrs by MTT assay; format: functional, cell-based
[5] = tested on: A549; test: Cytotoxicity against human A549 cells at 10 uM after 96 hrs by MTT assay; format: functional, cell-based
[6] = tested on: MCF7; test: Cytotoxicity against human MCF7 cells at 10 uM after 96 hrs by MTT assay; format: functional, cell-based
[7] = tested on: KETR3; test: Cytotoxicity against human Ketr3 cells at 10 uM after 96 hrs by MTT assay; format: functional, cell-based
[8] = tested on: Bel-7402; test: Cytotoxicity against human Bel7402 cells at 10 uM after 96 hrs by MTT assay; format: functional, cell-based
[9] = tested on: HCT-8; test: Cytotoxicity against human HCT8 cells at 10 uM after 96 hrs by MTT assay; format: functional, cell-based

CCN1C[C@]2(COC)CC[C@H](OC)[C@]34C1[C@H](C[C@H]23)[C@]1(O)[C@H]2[C@@H](OC(=O)c3ccccc3)[C@](O)(C[C@H]24)[C@@H](OC)[C@@H]1O
inactive: inhibition [1] | Activity [2] | inhibition [3] | Activity [4] | Activity [5] | Activity [6] | Activity [7] | Activity [8] | Activity [9]

CCN1C[C@]2(COC)[C@H](O)C[C@H](OC)[C@]34C1[C@H]([C@H](OC)[C@H]23)[C@]1(OC)[C@H]2[C@@H](OC(=O)c3ccccc3)[C@](O)(C[C@]24O)[C@@H](OC)[C@@H]1O
inactive: inhibition [1] | Activity [2] | inhibition [3] | Activity [4] | Activity [5] | Activity [6] | Activity [7] | Activity [8] | Activity [9]

CCN1C[C@]2(COC)CC[C@H](O)[C@]34C1[C@H]([C@H](OC)[C@H]23)[C@]1(O)[C@H]2[C@@H](OC(=O)c3ccccc3)[C@H](C[C@H]24)[C@@H](OC)[C@@H]1O
inactive: inhibition [1] | Activity [2] | inhibition [3] | Activity [4] | Activity [5] | Activity [6] | Activity [7] | Activity [8] | Activity [9]

C=C1C[C@]23C[C@H]4[C@@H]5[C@@]6(C)C[C@H](OC(=O)c7ccccc7)[C@@H](OC(C)=O)[C@]57C(C2[C@@H](O)[C@H]1[C@@H](OC(C)=O)[C@H]37)N4[C@H]6O
inactive: inhibition [1] | Activity [2] | inhibition [3] | Activity [4] | Activity [5] | Activity [6] | Activity [7] | Activity [8] | Activity [9]

CCN1C[C@]2(COC)CC[C@H](OC)[C@]34C1[C@H]([C@H](O)[C@H]23)[C@]1(O)[C@H]2[C@@H](OC(=O)c3ccccc3)[C@H](C[C@H]24)[C@@H](OC)[C@@H]1O
inactive: inhibition [1] | Activity [2] | inhibition [3] | Activity [4] | Activity [5] | Activity [6] | Activity [7] | Activity [8] | Activity [9]

C=C1C[C@]23C4[C@@H](OC(=O)[C@@H](C)CC)[C@H]1[C@@H](O)[C@H]2[C@]12C[C@@H](OC(=O)C(C)C)C[C@]5(C)[C@H]1[C@H]([C@@H]3O)[N+](C)([C@H]42)[C@H]5O
inactive: inhibition [1] | Activity [2] | inhibition [3] | Activity [4] | Activity [5] | Activity [6] | Activity [7] | Activity [8] | Activity [9]

COC[C@]12CN(C)C3[C@@H]4[C@H](OC)[C@H]1[C@@]3([C@@H](OC)C[C@H]2O)[C@]1(O)C[C@@]2(O)[C@H](OC(=O)c3ccccc3)[C@@H]1[C@]4(OC)[C@@H](O)[C@@H]2OC (stereo in doubt; 7)
inactive: inhibition [1] | Activity [2] | inhibition [3] | Activity [4] | Activity [5] | Activity [6] | Activity [7] | Activity [8] | Activity [9]

CCN1C[C@]2(COC)CC[C@H](OC)[C@]34C1[C@H]([C@H](OC)[C@H]23)[C@]1(OC(C)=O)[C@H]2[C@@H](OC(=O)c3ccccc3)[C@](O)(C[C@H]24)[C@@H](OC)[C@@H]1O
inactive: inhibition [1] | Activity [2] | inhibition [3] | Activity [4] | Activity [5] | Activity [6] | Activity [7] | Activity [8] | Activity [9]

COC[C@]12CN(C)C3[C@@H]4[C@H](OC)[C@H]1[C@@]3([C@@H](OC)C[C@H]2O)[C@]1(O)C[C@@]2(O)[C@H](OC(=O)c3ccccc3)[C@@H]1[C@]4(OC)[C@@H](O)[C@@H]2OC (stereo in doubt; 8)
inactive: inhibition [1] | Activity [2] | inhibition [3] | Activity [4] | Activity [5] | Activity [6] | Activity [7] | Activity [8] | Activity [9]

COC[C@]12CN(C)C3[C@@H]4[C@H](OC)[C@H]1[C@@]3([C@@H](OC)C[C@H]2O)[C@@H]1C[C@@]2(O)[C@H](OC(=O)c3ccccc3)[C@@H]1[C@]4(O)[C@@H](OC(C)=O)[C@@H]2OC
inactive: inhibition [1] | Activity [2] | inhibition [3] | Activity [4] | Activity [5] | Activity [6] | Activity [7] | Activity [8] | Activity [9]

COC[C@]12CN(C)C3[C@@H]4[C@H](OC)[C@H]1[C@@]3([C@@H](OC)C[C@H]2O)[C@@H]1C[C@@]2(O)[C@H](OC(=O)c3ccccc3)[C@@H]1[C@]4(O)[C@@H](O)[C@@H]2OC
inactive: inhibition [1] | Activity [2] | inhibition [3] | Activity [4] | Activity [5] | Activity [6] | Activity [7] | Activity [8] | Activity [9]

CCO[C@]12[C@H]3[C@@H](OC(=O)c4ccccc4)[C@H](C[C@H]3[C@@]34C5[C@@H]1[C@H](O)[C@@H]3[C@@](COC)(CC[C@@H]4OC)CN5CC)[C@@H](OC)[C@@H]2O
inactive: inhibition [1] | Activity [2] | inhibition [3] | Activity [4] | Activity [5] | Activity [6] | Activity [7] | Activity [8] | Activity [9]

COC[C@@]12CC[C@H](OC)[C@]34C([C@H]([C@H](OC)[C@H]13)[C@]1(OC(C)=O)[C@H]3[C@@H](OC(=O)c5ccccc5)[C@](O)(C[C@]34O)[C@@H](OC)[C@@H]1O)N(C)C2
inactive: inhibition [1] | Activity [2] | inhibition [3] | Activity [4] | Activity [5] | Activity [6] | Activity [7] | Activity [8] | Activity [9]

C=C1C[C@]23C4[C@@H](OC(=O)[C@@H](C)CC)[C@H]1[C@@H](O)[C@H]2[C@]12C[C@@H](OC(=O)CC)C[C@]5(C)[C@H]1[C@H]([C@@H]3O)[N+](C)([C@H]42)[C@H]5O
inactive: inhibition [1] | Activity [2] | inhibition [3] | Activity [4] | Activity [5] | Activity [6] | Activity [7] | Activity [8] | Activity [9]

CCN1C[C@]2(COC)CC[C@H](OC)[C@]34C1[C@H]([C@H](OC)[C@H]23)[C@@]1(O)C[C@H](OC)[C@@]2(O)C[C@@H]4[C@@H]1[C@H]2OC(=O)c1ccccc1
inactive: inhibition [1] | Activity [2] | inhibition [3] | Activity [4] | Activity [5] | Activity [6] | Activity [7] | Activity [8] | Activity [9]

CCN1C[C@]2(COC)CC[C@H](O)[C@]34C1[C@H](C[C@H]23)[C@]1(O)[C@H]2[C@@H](OC(=O)c3ccccc3)[C@H](C[C@H]24)[C@@H](OC)[C@@H]1O
inactive: inhibition [1] | Activity [2] | inhibition [3] | Activity [4] | Activity [5] | Activity [6] | Activity [7] | Activity [8] | Activity [9]

CCN1C[C@]2(COC)CC[C@H](OC)[C@]34C1[C@H]([C@H](OC)[C@H]23)[C@]1(OC)[C@H]2[C@@H](OC(=O)c3ccccc3)[C@](O)(C[C@H]24)[C@@H](OC)[C@@H]1O (single isomer, unassigned; (-))
inactive: inhibition [1] | Activity [2] | inhibition [3] | Activity [4] | Activity [5] | Activity [6] | Activity [7] | Activity [8] | Activity [9]

CCN1C[C@]2(COC)CC[C@H](OC)[C@]34C1[C@H](C[C@H]23)[C@]1(O)[C@H]2[C@@H](OC(=O)c3ccccc3)[C@H](C[C@H]24)[C@@H](OC)[C@@H]1O
inactive: inhibition [1] | Activity [2] | inhibition [3] | Activity [4] | Activity [5] | Activity [6] | Activity [7] | Activity [8] | Activity [9]

CCN1C[C@]2(COC)[C@H](O)C[C@H](OC)[C@]34C1[C@H]([C@H](OC)[C@H]23)[C@@]1(OC(C)=O)C[C@H](OC)[C@@]2(O)C[C@]4(O)[C@@H]1[C@H]2OC(=O)c1ccccc1
inactive: inhibition [1] | Activity [2] | inhibition [3] | Activity [4] | Activity [5] | Activity [6] | Activity [7] | Activity [8] | Activity [9]
